Measurements: US11992471B2, “Reelin/VEGF-C production/activation promoter and skin external composition using the same” (AMOREPACIFIC CORPORATION, priority 2021, dated 2024)

Assays:
Type in all cases: cell-based
[1] = system: VEGF-C; experiment: VEGF-C cytokine analysis (VEGFC human ELISA); settings: HDLEC, 1 ppm and 10 ppm, 48 hours, compared with cells with no treatment (100%), FIG. 3
Procedure: After culturing human dermal lymphatic endothelial cells in 6 well plates for 24 hours, while the cells with no treatment (N.T) were used as a reference (100%), the cells were treated with the compound represented by Chemical Formula E-1 at each concentration of 1 ppm and 10 ppm and cultured for 48 hours and then measured with respect to production and activity of VEGF-C through a VEGF-C cytokine analysis by using a VEGFC human ELISA Kit (ThermoFisher, U.S.A.) according to a manual, and the results are shown in FIG. 3.

[2] = system: reelin; experiment: Reelin cytokine analysis (human reelin ELISA); settings: HDLEC, 1 ppm and 10 ppm, 48 hours, compared with cells with no treatment (100%), FIG. 2
Procedure: After culturing human dermal lymphatic endothelial cells in 6 well plates for 24 hours, while the cells with no treatment (N.T) were used as a reference (100%), the cells were treated with the compound represented by Chemical Formula E-1 at each concentration of 1 ppm and 10 ppm and cultured for 48 hours and then measured with respect to production and activity of reelin through a reelin cytokine analysis by using human reelin ELISA Kit (Mybiosource, U.S.A.) according to a manual, and the results are shown in FIG. 2.

[3] = system: Human dermal lymphatic endothelial cells (HDLEC); experiment: Cytotoxicity analysis (WST-8 cell viability); settings: within a concentration range of 200 ppm, cultured 24 hours and 72 hours, FIG. 1
Procedure: Human dermal lymphatic endothelial cells (HDLEC, PromoCell, Germany) were newly cultured in 96 well dishes for one day and then treated with a compound represented by Chemical Formula E-1 (Biogenics Company) at each concentration of 0 ppm ( ? ) to 200 ppm ( ? ). The cells were cultured for 24 hours and 72 hours, and then measured with respect to absorbance at 450 nm by using a QuantiMax WST-8 Cell viability assay kit to check cell viability, and the results are shown in FIG. 1.

NCCS(=O)(=O)O [Chemical Formula E-1]
production and activity of VEGF-C [1]: further improve production and activity of VEGF-C | production and activity of reelin [2]: further improve production and activity of reelin | cytotoxicity (cell viability) [3]: no cytotoxicity
